These results are taken from patent US20150307940A1, “MOLECULAR SIGNATURE OF CUTANEOUS PIGMENTARY SPOTS, ASSOCIATED WITH THE EXTRACELLULAR MATRIX” (L'OREAL, priority 2011, published 2015).

In assay [1] the target is T1, LYZ, lysozyme (renal amyloidosis) (Homo sapiens, UniProt P61626).
T1 sequence (P61626 19-148): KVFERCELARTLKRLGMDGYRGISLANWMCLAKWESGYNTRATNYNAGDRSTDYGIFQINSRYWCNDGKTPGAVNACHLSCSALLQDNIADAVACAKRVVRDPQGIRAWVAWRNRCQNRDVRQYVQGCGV
The note with it: cited from earlier work.

The test system of the next assay is MATN2, matrilin 2. The note with it: cited from earlier work.
Assay [2] deals with PLAU, plasminogen activator, urokinase (Homo sapiens, UniProt P00749). The conditions noted are these: cited from earlier work.
Assay [3] deals with BMP2, bone morphogenetic protein 2. The conditions noted are these: cited from earlier work.
Another assay relates to ASPN, Asporin. The conditions noted are these: cited from earlier work.
For assay [4], the system named is SMAD3, SMAD family member 3. The note with it: cited from earlier work.
The subject of assay [5] is TIMP1, metallopeptidase inhibitor 1. The conditions noted are these: cited from earlier work.
In assay [6] the target is T2, PLOD2, procollagen-lysine, 2-oxoglutarate 5-dioxygenase 2 (Homo sapiens, UniProt O00469).
T2 sequence (O00469 26-737): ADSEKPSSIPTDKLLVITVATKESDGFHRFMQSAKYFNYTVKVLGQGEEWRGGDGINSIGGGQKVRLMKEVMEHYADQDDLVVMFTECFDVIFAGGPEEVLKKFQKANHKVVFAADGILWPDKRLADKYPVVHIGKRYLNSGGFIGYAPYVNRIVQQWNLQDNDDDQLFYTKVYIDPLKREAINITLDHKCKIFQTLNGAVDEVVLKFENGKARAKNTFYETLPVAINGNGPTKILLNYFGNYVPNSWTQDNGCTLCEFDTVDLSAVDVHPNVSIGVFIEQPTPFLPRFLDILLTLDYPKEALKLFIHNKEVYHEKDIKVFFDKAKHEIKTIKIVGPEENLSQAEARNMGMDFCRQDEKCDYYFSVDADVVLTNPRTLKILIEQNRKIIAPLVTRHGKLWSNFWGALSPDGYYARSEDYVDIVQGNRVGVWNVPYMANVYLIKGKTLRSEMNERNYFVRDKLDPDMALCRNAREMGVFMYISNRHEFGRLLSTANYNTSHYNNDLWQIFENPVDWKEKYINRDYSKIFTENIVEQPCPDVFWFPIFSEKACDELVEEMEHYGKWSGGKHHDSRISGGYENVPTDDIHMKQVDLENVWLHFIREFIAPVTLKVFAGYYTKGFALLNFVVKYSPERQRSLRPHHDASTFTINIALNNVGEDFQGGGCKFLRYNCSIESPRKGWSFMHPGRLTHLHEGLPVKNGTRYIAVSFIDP
The conditions noted are these: cited from earlier work.

Assay [7] deals with reconstructed pigmented skin (RPS). Briefly: Stimulation of pigmentation of reconstructed pigmented skin by treatment with TGF-beta. The note with it: 200 pg/mL TGF-β1 on equivalent dermis for 3 days, compared with control. The class given is cell-based. The procedure:
FIG. 1: This figure illustrates the Reconstructed Pigmented Skin (RPS) treatment protocol using TGF-β. In the diagram, T means “treatment with TGF-β”, in a concentration of 200 pg/mL, with 4 mM of HCl and 1 mg/mL of BSA as the vehicle. The medium was MEM 3F′ with 2% FBS. The equivalent derma were treated for 3 consecutive days. On D0i, the equivalent dermis was seeded with keratinocytes and melanocytes (K+M on the graph) and kept immersed for 7 days. The culture was then emersed for 2 weeks;
The treatment protocol for reconstructed pigmented skin (RPS) with TGF-β is illustrated in FIG. 1. It was as follows:
Equivalent dermis (lattices) containing live fibroblasts in a collagen matrix were attached to the bottom of a Petri dish (D-4) and treated with TGF-β1 (T on FIG. 1) in a concentration of 200 pg/mL (vehicle: 4 mM of HCl and 1 mg/mL of BSA; medium: MEM 3F′ with 2% FBS), for 3 days (D-3; D-2 and D-1 in FIG. 1). Next, the pigmented epidermis was reconstructed on the equivalent dermis by seeding keratinocytes and melanocytes (D0). The culture was kept immersed for 1 week and emersed for 2 weeks (FIG. 1).
Samples were removed to analyse the pigmentation: • integration and morphology of melanocytes were observed after Dopa reaction on detached epidermis; • colorimetric luminance measurement provided information regarding the degree of clarity of the samples (the lower the L*, the darker the samples); • the presence of melanin was observed after Fontana Masson staining skin sections; and • the quantity of melanin present in the epidermis was measured by image analysis.

In assay [8] the test system is SMAD7, SMAD family member 7. The note with it: cited from earlier work.
The subject of assay [9] is TGFBR2, transforming growth factor, β receptor II (70/80 kDa). The conditions noted are these: cited from earlier work.

Like-named read-outs stand apart in the source and are kept apart here. Where a SMILES comes first, the peptide text is derived from it.

Consider “PACAP38: form of pituitary adenylate cyclase-activating polypeptide listed beneath PACAP”, for which the “Sense of modulation: LYZ expression” value in assay [1] was “Increases”.

Consider Vitamin K2 menaquinone, for which the “Sense of modulation: MATN2 expression” value in the assay with MATN2, matrilin 2 is recorded as “Increases”.

Take `COC(=O)[C@@H](c1ccccc1Cl)N1CCc2sccc2C1` [Thienopyridine SR 25989]: the “Sense of modulation: PLAU expression” value in [2] is on record as “Increases”.

Consider `Cc1cc(SCc2sc(-c3ccc(C(F)(F)F)c(F)c3)nc2C)ccc1OCC(=O)O` [GW0742], for which the “Sense of modulation: BMP2 expression” value in [3] is recorded as “Reduces exp”; in [3] (listed as GW-0742) it was “reduces”.

In the case of `CC(C)(C#N)c1cc(Cn2cncn2)cc(C(C)(C)C#N)c1` [anastrozole], in the assay on ASPN, Asporin, the “Sense of modulation: ASPN expression” value was “Increases”.

For the compound `O=C([O-])Cc1ccccc1.[Na+]` [Sodium phenylacetate (NaPA), Sodium phenylacetate], the “Sense of modulation: PLAU expression” value in assay [2] was “Reduces”; in [2] (listed as NaPA), “reduces”.

In the case of `NC(=O)c1ccc(-c2nc(-c3ccc4c(c3)OCO4)c(-c3ccccn3)[nH]2)cc1` [SB-431542], in [4], the “Sense of modulation: SMAD3 expression” value was “Reduces” and the “modulation of SMAD3 ('reduces SMAD3', level not given)” value is “reduces”.

Consider `N=C(N)c1ccc(N)cc1` [P-aminobenzamidine], for which the “Sense of modulation: PLAU activity” value is on record as “Reduces activity” in assay [2] and “reduces” in assay [2] (listed as p-aminobenzamidine).

Take `CCCCC(=O)N(Cc1ccc(-c2ccccc2-c2nnn[nH]2)cc1)[C@H](C(=O)O)C(C)C` [Valsartan]: the “Sense of modulation: TIMP1 expression” value is “Reduces” in assay [5] and “reduces” in [5] (listed as valsartan).

Consider `CC(C)=CCC[C@](C)(O[C@@H]1O[C@H](CO)[C@@H](O)[C@H](O)[C@H]1O)[C@H]1CC[C@]2(C)[C@@H]1[C@H](O)C[C@@H]1[C@@]3(C)CC[C@H](O)C(C)(C)[C@@H]3[C@@H](O[C@@H]3O[C@H](CO)[C@@H](O)[C@H](O)[C@H]3O[C@@H]3OC[C@@H](O)[C@H](O)[C@H]3O)C[C@]12C` [Notoginsenoside R1], for which the “Sense of modulation: PLAU expression” value in assay [2] is “Increases”.

For `N#CCCN` [beta-aminopropionitrile (bAPN), beta-aminopropionitrile], the “Sense of modulation: PLOD2 expression” value in assay [6] was “Reduces”.

For “TGF-β1: Transforming growth factor beta 1 used to treat equivalent dermis at 200 pg/mL”, in [7], the “integration and morphology of melanocytes (Dopa reaction on detached epidermis)” value was “still present in the epidermis and retain the correct dendritic morphology”; the “melanin content (Fontana Masson stained sections, quantification by image analysis)” value is on record as “visibly increased”; the “melanin deposits in the epidermis” value is “higher”. Besides, the “luminance of the samples (L*)” value in assay [7] (lower L* = darker) was “reduced”.

`O=C1CCC[C@@H]2[C@H]3CCC[N+]4([O-])CCC[C@@H](CN12)[C@@H]34` (some centres unmarked) [Oxymatrine]: in assay [4], the “modulation of SMAD3 ('reduces SMAD3', level not given)” value was “reduces”. Also, in assay [8], the “Sense of modulation: SMAD7 expression” value is “Increases”.

For `CC(=O)N[C@@H](CO)C(=O)N[C@@H](CC(=O)O)C(=O)N[C@@H](CCCCN)C(=O)N1CCC[C@H]1C(=O)O` [N-acetyl-seryl-aspartyl-lysyl-proline] (Ac-SDKP-OH), in [8], the “Sense of modulation: SMAD7 expression” value was “Increases”.

For `O=C(/C=C/c1ccc(O)c2c1[C@H](C(=O)O[C@H](Cc1ccc(O)c(O)c1)C(=O)O)[C@@H](c1ccc(O)c(O)c1)O2)O[C@H](Cc1ccc(O)c(O)c1)C(=O)O` [Salvianolic Acid B (Sal B), Salvianolic Acid B], in [4], the “Sense of modulation: SMAD3 expression” value was “Reduces” and the “modulation of SMAD3 ('reduces SMAD3', level not given)” value is reported as “reduces”. In assay [9], the “Sense of modulation: TGFBR2 expression” value was “reduces”. Moreover, the “Sense of modulation: TGFBR2 expression” value in assay [9] (listed as Salvianolic acid B (SA-B)) was “Reduces”.

Turning to `N#Cc1ccc(C(c2ccc(C#N)cc2)n2cncn2)cc1` [Letrozole], the “Sense of modulation: ASPN expression” value with ASPN, Asporin is reported as “Increases”.

As to `O=CC(=O)C[C@H](O)[C@H](O)CO` [3-deoxyglucosone], the “Sense of modulation: SMAD7 expression” value in [8] is given as “Increases”.
